Reference: US11332452B2, “Pesticidal compositions and methods” (priority 2019, dated 2022)

Columns and labels:
Type in all cases: in vivo
[1] = system: Beet Armyworm (Spodoptera exigua, LAPHEG); test: Insecticidal test for beet armyworm (BAW), 128-well diet tray assay; settings: 168 h, 50 μg/cm^2 of test compound on artificial diet, second instar larvae, 25° C., five to seven days, average of eight wells, read-out: BAW % Control (or Mortality) rating
In short: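 Second-instar larvae placed on artificial diet surface-treated with 50 μg/cm^2 compound (in acetone-water), eight wells per compound. Held at 25° C, 14:10 light-dark for five to seven days; percent mortality averaged across the eight wells.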

[2] = system: Cabbage Looper (Trichloplusia Ni, TRIPNI); test: Insecticidal test for cabbage looper (CL), 128-well diet tray assay; settings: Trichoplusia ni, 168 h, read-out: CL % Control (or Mortality) rating
In short: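 Second-instar larvae on artificial diet treated with 50 μg/cm^2 compound (acetone-water 90:10), dried; held 25° C., 14:10 light-dark, five to seven days. Percent mortality per well, averaged over eight wells.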

[3] = system: Yellow Fever Mosquito (Aedes aegypti, AEDSAE); test: Insecticidal test for yellow fever mosquito (YFM), 96-well plate larval assay; settings: from 4000 ppm DMSO master solution, diluted; about 1 day-old larvae; room temperature; scored after 3 days
In short: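 Compounds from 4000 ppm DMSO master stocks (diluted with 90:10 water/acetone) dispensed into wells, then infested with ~1-day-old Aedes aegypti larvae in liver-powder water; 6 replicate plates. Lidded plates held at room temperature 3 days, then each well scored for mortality.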

| SMILES | mortality at 50 µg/cm2 [1] [%] | mortality at 50 µg/cm2 [2] [%] | YFM % Control (or Mortality) rating [3] |
| --- | --- | --- | --- |
| Cc1ccc(C(C)C)c(N2C(=O)CS/C2=N\C(=O)Nc2ccc(CCNC(=S)Nc3ccc(OC(F)(F)F)cc3)cc2)c1 [Compound A47, (Z)-1-(3-(2-isopropyl-5-methylphenyl)-4-oxothiazolidin-2-ylidene)-3-(4-(2-(3-(4-(trifluoromethoxy)phenyl)thioureido)ethyl)phenyl)urea] | 50 to 100 | 50 to 100 | A (80-100) |
| Cc1ccc(C(C)C)c(N2C(=O)CS/C2=N\C(=O)Nc2ccc(NC(=O)c3ccc(OC(F)(F)F)cc3)cc2)c1 [Compound A48, (Z)—N-(4-(3-(3-(2-isopropyl-5-methylphenyl)-4-oxothiazolidin-2-ylidene)ureido)phenyl)-4-(trifluoromethoxy)benzamide] | 50 to 100 | 50 to 100 | A (80-100) |
| Cc1ccc(C(C)C)c(N2C(=O)CS/C2=N\C(=O)NCCc2ccc(NC(=O)c3ccc(OC(F)(F)F)cc3)cc2)c1 [Compound A49, (Z)—N-(4-(2-(3-(3-(2-isopropyl-5-methylphenyl)-4-oxothiazolidin-2-ylidene)ureido)ethyl)phenyl)-4-(trifluoromethoxy)benzamide] | 50 to 100 | 0 | A (80-100) |
| Cc1ccc(C(C)C)c(N2C(=O)CS/C2=N\C(=O)Nc2ccc(CCNC(=O)c3ccc(OC(F)(F)F)cc3)cc2)c1 [Compound A50, (Z)—N-(4-(3-(3-(2-isopropyl-5-methylphenyl)-4-oxothiazolidin-2-ylidene)ureido)phenethyl)-4-(trifluoromethoxy)benzamide] | 50 to 100 | 50 to 100 | A (80-100) |
| Cc1ccc(C(C)C)c(N2C(=O)CS/C2=N\C(=O)Nc2ccc(NS(=O)(=O)c3ccc(OC(F)(F)F)cc3)cc2)c1 [Compound A51, (Z)—N-(4-(3-(3-(2-isopropyl-5-methylphenyl)-4-oxothiazolidin-2-ylidene)ureido)phenyl)-4-(trifluoromethoxy)benzenesulfonamide] | 0 | 50 to 100 | B (More than 0-Less than 80) |
| Cc1ccc(C(C)C)c(N2C(=O)CS/C2=N\C(=O)Nc2ccc(CCOC(=O)Nc3ccc(OC(F)(F)F)cc3)cc2)c1 [Compound A52, (Z)-4-(3-(3-(2-isopropyl-5-methylphenyl)-4-oxothiazolidin-2-ylidene)ureido)phenethyl (4-(trifluoromethoxy)phenyl)carbamate] | 50 to 100 | 50 to 100 | A (80-100) |
| Cc1ccc(C(C)C)c(N2C(=O)CS/C2=N\C(=O)NCCc2ccc(NC(=O)Oc3ccc(OC(F)(F)F)cc3)cc2)c1 [Compound A53, 4-(trifluoromethoxy)phenyl (Z)-(4-(2-(3-(3-(2-isopropyl-5-methylphenyl)-4-oxothiazolidin-2-ylidene)ureido)ethyl)phenyl)carbamate] | 50 to 100 | 50 to 100 | A (80-100) |
| CC(C)c1ccccc1N1C(=O)CS/C1=N\C(=O)Nc1ccc(N/N=C/c2ccc(OC(F)(F)F)cc2)cc1 [Compound A54, 1-((Z)-3-(2-isopropylphenyl)-4-oxothiazolidin-2-ylidene)-3-(4-(2-((E)-4-(trifluoromethoxy)benzylidene)hydrazinyl)phenyl)urea] | 50 to 100 | 50 to 100 | A (80-100) |
| Cc1ccc(C(C)C)c(N2C(=O)CS/C2=N\C(=O)Nc2ccc(N/N=C/c3ccc(OC(F)(F)F)cc3)cc2)c1 [Compound A55, 1-((Z)-3-(2-Isopropyl-5-methylphenyl)-4-oxothiazolidin-2-ylidene)-3-(4-(2-((E)-4-(trifluoromethoxy)benzylidene)hydrazinyl)phenyl)urea] | 50 to 100 | 50 to 100 | A (80-100) |
